Assay results reported in BindingDB's records for patent WO2025051920 (Sanofi-Aventis Deutschland, 2025).
pIC50: −log10 of the molar value. Bridge positions count the residues as written; N and C are the ends. Square brackets hold non-standard residues; d marks the D form. Peptide text beside a SMILES is read from it. 2Nal = N[C@@H](Cc1ccc2ccccc2c1)C(=O)O; dOrn = NCCC[C@@H](N)C(=O)O; Aib = CC(C)(N)C(=O)O

target: Interleukin-23 subunit alpha/receptor (UniProt Q5VWK5); assay: ELISA assay for specific human IL-23R inhibitors
Sequence (Q9NPF7 whole entry): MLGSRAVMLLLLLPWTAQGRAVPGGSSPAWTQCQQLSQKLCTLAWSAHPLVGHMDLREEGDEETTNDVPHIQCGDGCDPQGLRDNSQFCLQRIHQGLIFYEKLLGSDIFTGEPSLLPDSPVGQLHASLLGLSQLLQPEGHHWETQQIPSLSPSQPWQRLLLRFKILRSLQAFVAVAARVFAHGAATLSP
Sequence (Q5VWK5 whole entry): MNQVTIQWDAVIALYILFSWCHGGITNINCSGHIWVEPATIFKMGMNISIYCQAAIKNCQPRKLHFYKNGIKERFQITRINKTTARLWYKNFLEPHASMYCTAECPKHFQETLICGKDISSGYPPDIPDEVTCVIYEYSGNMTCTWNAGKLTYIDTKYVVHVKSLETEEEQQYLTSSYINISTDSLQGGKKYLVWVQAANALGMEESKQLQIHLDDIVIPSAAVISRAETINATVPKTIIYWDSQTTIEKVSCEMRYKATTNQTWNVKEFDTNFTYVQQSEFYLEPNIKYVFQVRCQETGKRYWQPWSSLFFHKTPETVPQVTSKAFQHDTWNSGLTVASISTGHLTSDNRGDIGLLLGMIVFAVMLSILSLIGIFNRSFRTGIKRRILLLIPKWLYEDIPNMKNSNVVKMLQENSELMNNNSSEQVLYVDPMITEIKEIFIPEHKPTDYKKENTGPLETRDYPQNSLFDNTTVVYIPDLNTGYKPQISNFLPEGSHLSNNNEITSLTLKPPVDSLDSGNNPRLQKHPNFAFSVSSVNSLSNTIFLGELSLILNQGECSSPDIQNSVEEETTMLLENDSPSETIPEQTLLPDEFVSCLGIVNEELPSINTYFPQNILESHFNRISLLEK
Protocol: A 384-well plate was coated with 50 µl/well of human IL-23 at a final concentration of […] and incubated overnight at 4°C. The wells were washed 3 times with […] wash buffer and blocked with […] blocking buffer for 60 minutes at room temperature and washed again. 20 µl of serially diluted test peptides was added to each well and subsequently 20 µl of recombinant human IL-23R-Fc chimera at final concentration of […]. The plate was incubated for 60 minutes at room temperature. After the wells were washed, bound IL-23R-Fc was detected with goat anti-hu- IgG 1 -HRP antibody. Signals were visualized with QuantaBlu Fluorogenic Peroxidase Substrate.

Structure (SMILES)	pIC50
COc1ccc(C[C@@H]2NC(=O)[C@H](CCCNC(=N)N)NC(=O)[C@H](CCC(N)=O)NC(=O)[C@H](Cc3c[nH]c4ccccc34)NC(=O)[C@H]([C@@H](C)O)NC(=O)[C@H](CC(N)=O)NC(=O)[C@H](NC(C)=O)CC(=O)NCCCC[C@@H](C(=O)N[C@@H](CC(N)=O)C(=O)N[C@@H](CC(N)=O)C(=O)O)NC(=O)C(C)(C)NC(=O)[C@H](Cc3cccc4ccccc34)NC2=O)cc1 [WO2025051920, Example 11]	7.72
COc1ccc(C[C@@H]2NC(=O)[C@H](CCCNC(=N)N)NC(=O)[C@H](CCC(N)=O)NC(=O)[C@H](Cc3c[nH]c4ccccc34)NC(=O)[C@H]([C@@H](C)O)NC(=O)[C@H](CC(N)=O)NC(=O)[C@H](NC(C)=O)CC(=O)NCCCC[C@@H](C(=O)N[C@@H](CC(N)=O)C(=O)N[C@@H](CC(N)=O)C(=O)O)NC(=O)C(C)(C)NC(=O)[C@H](Cc3ccc4ccccc4c3)NC2=O)cc1 [WO2025051920, Example 12]	7.83
COc1ccc(C[C@@H]2NC(=O)[C@H](CCCNC(=N)N)NC(=O)[C@H](CCC(N)=O)NC(=O)[C@H](Cc3c[nH]c4ccccc34)NC(=O)[C@H]([C@@H](C)O)NC(=O)[C@H](CC(N)=O)NC(=O)[C@H](NC(C)=O)CCCCNC(=O)C[C@@H](C(=O)N[C@@H](CC(N)=O)C(=O)N[C@@H](CC(N)=O)C(=O)O)NC(=O)[C@H](CCCNC(N)=O)NC(=O)[C@H](Cc3cccc4ccccc34)NC2=O)cc1 [WO2025051920, Example 18]	7.93
COc1ccc(C[C@@H]2NC(=O)[C@H](CCCNC(=N)N)NC(=O)[C@H](CCC(N)=O)NC(=O)[C@H](Cc3c[nH]c4ccccc34)NC(=O)[C@H]([C@@H](C)O)NC(=O)[C@H](CC(N)=O)NC(=O)[C@H](NC(C)=O)CCCCNC(=O)C[C@@H](C(=O)N[C@@H](CC(N)=O)C(=O)N[C@@H](CC(N)=O)C(=O)O)NC(=O)[C@H](CCC(N)=O)NC(=O)[C@H](Cc3cccc4ccccc34)NC2=O)cc1 [WO2025051920, Example 19]	7.81
COc1ccc(C[C@@H]2NC(=O)[C@H](C(C)C)NC(=O)[C@H](CCC(N)=O)NC(=O)[C@H](Cc3c[nH]c4ccccc34)NC(=O)[C@H]([C@@H](C)O)NC(=O)[C@H](CC(N)=O)NC(=O)[C@H](NC(C)=O)CCCCNC(=O)C[C@@H](C(=O)N[C@@H](CC(N)=O)C(=O)N[C@@H](CC(N)=O)C(=O)O)NC(=O)C(C)(C)NC(=O)[C@H](Cc3cccc4ccccc34)NC2=O)cc1 [WO2025051920, Example 20]	7.80
COc1ccc(C[C@@H]2NC(=O)C(C)(C)NC(=O)[C@H](CCC(N)=O)NC(=O)[C@H](Cc3c[nH]c4ccccc34)NC(=O)[C@H]([C@@H](C)O)NC(=O)[C@H](CC(N)=O)NC(=O)[C@H](NC(C)=O)CCCCNC(=O)C[C@@H](C(=O)N[C@@H](CC(N)=O)C(=O)N[C@@H](CC(N)=O)C(=O)O)NC(=O)C(C)(C)NC(=O)[C@H](Cc3cccc4ccccc34)NC2=O)cc1 [WO2025051920, Example 21]	7.77
COc1ccc(C[C@@H]2NC(=O)[C@H](CCCNC(=N)N)NC(=O)[C@H](CCC(N)=O)NC(=O)[C@H](Cc3c[nH]c4ccccc34)NC(=O)[C@H]([C@@H](C)O)NC(=O)[C@H](CC(N)=O)NC(=O)[C@H](NC(C)=O)CCCNC(=O)CC[C@@H](C(=O)N[C@@H](CC(N)=O)C(=O)N[C@@H](CC(N)=O)C(=O)O)NC(=O)C(C)(C)NC(=O)[C@H](Cc3cccc4ccccc34)NC2=O)cc1 [WO2025051920, Example 22]	7.32
COc1ccc(C[C@@H]2NC(=O)[C@H](CCCNC(=N)N)NC(=O)[C@H](CCC(N)=O)NC(=O)[C@H](Cc3cn(C)c4ccccc34)NC(=O)[C@H]([C@@H](C)O)NC(=O)[C@H](CC(N)=O)NC(=O)[C@H](NC(C)=O)CCCCNC(=O)C[C@@H](C(=O)N[C@@H](CC(N)=O)C(=O)N[C@@H](CC(N)=O)C(=O)O)NC(=O)[C@@H](Cc3cscn3)NC(=O)[C@H](Cc3ccc4ccccc4c3)NC2=O)cc1 [WO2025051920, Example 25]	8.02
COc1ccc(C[C@@H]2NC(=O)[C@H](CCCNC(=N)N)NC(=O)[C@H](CCC(N)=O)NC(=O)[C@H](Cc3c[nH]c4ccccc34)NC(=O)[C@H]([C@@H](C)O)NC(=O)[C@H](CC(N)=O)NC(=O)[C@H](NC(C)=O)CCCNC(=O)C[C@@H](C(=O)N[C@@H](CC(N)=O)C(=O)N[C@@H](CC(N)=O)C(N)=O)NC(=O)C(C)(C)NC(=O)[C@H](Cc3ccc4ccccc4c3)NC2=O)cc1 [WO2025051920, Example 27] (Ac-[dOrn]NTWQRY(Me)[2Nal][Aib]DNN-NH2; lactam 1-10)	7.70

Now those with a higher pIC50, led by results:

pIC50	Structure (SMILES)
9.20	COc1ccc(C[C@@H]2NC(=O)[C@H](CC(C)C)NC(=O)[C@H](CCC(N)=O)NC(=O)[C@H](Cc3c[nH]c4ccccc34)NC(=O)[C@H]([C@@H](C)O)NC(=O)[C@H](CC(N)=O)NC(=O)[C@H](NC(C)=O)CCCCNC(=O)C[C@@H](C(=O)N[C@@H](CC(N)=O)C(=O)N[C@@H](CC(N)=O)C(=O)O)NC(=O)C(C)(C)NC(=O)[C@H](Cc3ccc4ccccc4c3)NC2=O)cc1 [WO2025051920, Example 1]
9.16	COc1ccc(C[C@@H]2NC(=O)[C@H](C)NC(=O)[C@H](CCC(N)=O)NC(=O)[C@H](Cc3c[nH]c4ccccc34)NC(=O)[C@H]([C@@H](C)O)NC(=O)[C@H](CC(N)=O)NC(=O)[C@H](NC(C)=O)CCCCNC(=O)C[C@@H](C(=O)N[C@@H](CC(N)=O)C(=O)N[C@@H](CC(N)=O)C(=O)O)NC(=O)C(C)(C)NC(=O)[C@H](Cc3ccc4ccccc4c3)NC2=O)cc1 [WO2025051920, Example 2]
8.80	CC(=O)N[C@@H]1CCCCNC(=O)C[C@@H](C(=O)N[C@@H](CC(N)=O)C(=O)N[C@@H](CC(N)=O)C(=O)O)NC(=O)C(C)(C)NC(=O)[C@H](Cc2ccc3ccccc3c2)NC(=O)[C@H](Cc2ccc(O)cc2)NC(=O)[C@H](CCCNC(=N)N)NC(=O)[C@H](CCC(N)=O)NC(=O)[C@H](Cc2c[nH]c3ccccc23)NC(=O)[C@H]([C@@H](C)O)NC(=O)[C@H](CC(N)=O)NC1=O [WO2025051920, Example 4]
8.71	COc1ccc(C[C@@H]2NC(=O)[C@H](CCCNC(=N)N)NC(=O)[C@H](CCC(N)=O)NC(=O)[C@H](Cc3c[nH]c4ccccc34)NC(=O)[C@H]([C@@H](C)O)NC(=O)[C@H](CC(N)=O)NC(=O)[C@@H](NC(C)=O)CC(=O)NCCCC(C(=O)N[C@@H](CC(N)=O)C(=O)N[C@@H](CC(N)=O)C(=O)O)NC(=O)C(C)(C)NC(=O)[C@H](Cc3ccc4ccccc4c3)NC2=O)cc1 (stereo not given in full) [WO2025051920, Example 6]
8.61	COc1ccc(C[C@@H]2NC(=O)[C@H](CC(C)C)NC(=O)[C@H](CCC(N)=O)NC(=O)[C@H](Cc3c[nH]c4ccccc34)NC(=O)[C@H]([C@@H](C)O)NC(=O)[C@H](CC(N)=O)NC(=O)[C@H](NC(C)=O)CCCCNC(=O)C[C@@H](C(=O)N[C@@H](CC(N)=O)C(=O)N[C@@H](CC(N)=O)C(=O)O)NC(=O)C(C)(C)NC(=O)[C@H](Cc3cccc4ccccc34)NC2=O)cc1 [WO2025051920, Example 7]
8.56	COc1ccc(C[C@@H]2NC(=O)[C@H](C)NC(=O)[C@H](CCC(N)=O)NC(=O)[C@H](Cc3c[nH]c4ccccc34)NC(=O)[C@H]([C@@H](C)O)NC(=O)[C@H](CC(N)=O)NC(=O)[C@H](NC(C)=O)CCCCNC(=O)C[C@@H](C(=O)N[C@@H](CC(N)=O)C(=O)N[C@@H](CC(N)=O)C(=O)O)NC(=O)C(C)(C)NC(=O)[C@H](Cc3cccc4ccccc34)NC2=O)cc1 [WO2025051920, Example 8]
8.44	COc1ccc(C[C@@H]2NC(=O)[C@H](CCCNC(=N)N)NC(=O)[C@H](CCC(N)=O)NC(=O)[C@H](Cc3cn(C)c4ccccc34)NC(=O)[C@H]([C@@H](C)O)NC(=O)[C@H](CC(N)=O)NC(=O)[C@H](NC(C)=O)CCCCNC(=O)C[C@@H](C(=O)N[C@@H](CC(N)=O)C(=O)N[C@@H](CC(N)=O)C(=O)O)NC(=O)[C@H](CCCCNC(C)=O)NC(=O)[C@H](Cc3ccc4ccccc4c3)NC2=O)cc1 [WO2025051920, Example 10]
8.20	COc1ccc(C[C@@H]2NC(=O)[C@H](CCCNC(=N)N)NC(=O)[C@H](CCC(N)=O)NC(=O)[C@H](Cc3c[nH]c4ccccc34)NC(=O)[C@H]([C@@H](C)O)NC(=O)[C@H](CC(N)=O)NC(=O)[C@H](NC(C)=O)CC(=O)NCCC[C@@H](C(=O)N[C@@H](CC(N)=O)C(=O)N[C@@H](CC(N)=O)C(=O)O)NC(=O)C(C)(C)NC(=O)[C@H](Cc3ccc4ccccc4c3)NC2=O)cc1 [WO2025051920, Example 13]
8.27	CC(=O)N[C@@H]1CCCCNC(=O)C[C@@H](C(=O)N[C@@H](CC(N)=O)C(=O)N[C@@H](CC(N)=O)C(=O)O)NC(=O)C(C)(C)NC(=O)[C@H](Cc2cccc3ccccc23)NC(=O)[C@H](Cc2ccc(O)cc2)NC(=O)[C@H](CCCNC(=N)N)NC(=O)[C@H](CCC(N)=O)NC(=O)[C@H](Cc2c[nH]c3ccccc23)NC(=O)[C@H]([C@@H](C)O)NC(=O)[C@H](CC(N)=O)NC1=O [WO2025051920, Example 14]
8.10	COc1ccc(C[C@@H]2NC(=O)[C@H](CCCNC(=N)N)NC(=O)[C@H](CCC(N)=O)NC(=O)[C@H](Cc3c[nH]c4ccccc34)NC(=O)[C@H]([C@@H](C)O)NC(=O)[C@H](CC(N)=O)NC(=O)[C@H](NC(C)=O)CCCCNC(=O)C[C@@H](C(=O)N[C@@H](CC(N)=O)C(=O)N[C@@H](CC(N)=O)C(=O)O)NC(=O)[C@H](CCCCNC(C)=O)NC(=O)[C@H](Cc3cccc4ccccc34)NC2=O)cc1 [WO2025051920, Example 17]
8.04	COc1ccc(C[C@@H]2NC(=O)[C@H](CCCNC(=N)N)NC(=O)[C@H](CCC(N)=O)NC(=O)[C@H](Cc3c[nH]c4ccccc34)NC(=O)[C@H]([C@@H](C)O)NC(=O)[C@H](CC(N)=O)NC(=O)[C@H](NC(C)=O)CCCCNC(=O)C[C@@H](C(=O)N[C@@H](CC(N)=O)C(=O)N[C@@H](CC(N)=O)C(=O)O)NC(=O)[C@H](CCCCN)NC(=O)[C@H](Cc3ccc4ccccc4c3)NC2=O)cc1 [WO2025051920, Example 28]
